Laboratory results as given in the Deep4Chem optical property database.
Values belong to the compound of their own block, whether it stands above or below them.

Experiment: photoluminescence quantum yield (fraction); solvent given as SMILES

SMILES: c1ccc2c(c1)Oc1ccccc1N2c1ccc2c(c1)c1ccccc1n1ccnc21
- photoluminescence quantum yield (in O=P(c1ccccc1)(c1ccccc1)c1ccccc1Oc1ccccc1P(=O)(c1ccccc1)c1ccccc1): 0.27

SMILES: CC1(C)C(/C=C/C2=C(c3ccc(C(=O)O)cc3)C(=C/C=C3/N(CCCCS(=O)(=O)[O-])c4ccc(S(=O)(=O)[O-])cc4C3(C)C)/CCC2)=[N+](CCCCS(=O)(=O)[O-])c2ccc(S(=O)(=O)[O-])cc21
- photoluminescence quantum yield (in CO): 0.1

SMILES: CCCCn1c(-c2ccc(-c3nnc(-c4cccs4)o3)cc2)nc(-c2ccccc2)c1-c1ccccc1
- photoluminescence quantum yield (in ClCCl): 0.33

SMILES: CCOC(=O)c1cc(C(=O)OCC)c2c(C)ccc(O)c2n1
- photoluminescence quantum yield (in CCO): 0.26

SMILES: CCOc1cc(C=C2c3ccccc3-c3ccccc32)c(OCC)cc1C=C1c2ccccc2C=Cc2ccccc21
- photoluminescence quantum yield (in C1CCOC1): 0.00012

SMILES: O=C(O)CCCc1cc(C#Cc2ccccc2)c2ccc3c(C#Cc4ccccc4)cc(C#Cc4ccccc4)c4ccc1c2c34
- photoluminescence quantum yield (in CS(C)=O): 0.72
- photoluminescence quantum yield (in ClC(Cl)(Cl)Cl): 0.56

SMILES: COc1ccccc1-c1nc2c3ccccc3c3ccccc3c2n1-c1ccc(C)cc1
- photoluminescence quantum yield (in Cc1ccccc1): 0.284

SMILES: F[B-]1(F)n2cccc2C(c2ccccc2)=C2C=CC(c3ccc(OC4=[N+]5C(=C(c6ccccc6)c6cc(Br)c(Br)n6[B-]5(F)F)C=C4Br)cc3)=[N+]21
- photoluminescence quantum yield (in ClC(Cl)Cl): 0.01

SMILES: COc1c2ccccc2c(OC)c2c1c1ccc(F)cc1n2C
- photoluminescence quantum yield (in C1CCCCC1): 0.36
- photoluminescence quantum yield (in CC#N): 0.27
- photoluminescence quantum yield (in CO): 0.34
- photoluminescence quantum yield (in ClCCl): 0.45

SMILES: Cc1cc(C)cc(C)c1
- photoluminescence quantum yield (in C1CCCCC1): 0.27

SMILES: CCCCCC(CC)C1(C(CC)CCCCC)c2ccccc2-c2ccc(C#Cc3cc(C#Cc4ccc5c(c4)C(C(CC)CCCCC)(C(CC)CCCCC)c4ccccc4-5)c4ccc5c(C#Cc6ccc7c(c6)C(C(CC)CCCCC)(C(CC)CCCCC)c6ccccc6-7)cc(C#Cc6ccc7c(c6)C(C(CC)CCCCC)(C(CC)CCCCC)c6ccccc6-7)c6ccc3c4c65)cc21 (stereo not given)
- photoluminescence quantum yield (in Cc1ccccc1): 0.67

SMILES: Oc1ccc2ccccc2c1C1Nc2cccc3cccc(c23)N1
- photoluminescence quantum yield (in CC#N): 0.03
- photoluminescence quantum yield (in CO): 0.03
- photoluminescence quantum yield (in CS(C)=O): 0.14
- photoluminescence quantum yield (in Cc1ccccc1): 0.33

The next lines start with the values.

- photoluminescence quantum yield (in C1CCOC1): 0.03
SMILES: CC(=O)c1ccc(-c2ccc3c(c2)C(=O)c2cc(-c4ccc(C(C)=O)cc4)ccc2-3)cc1

- photoluminescence quantum yield (in CCO): 0.013
SMILES: CN(C)c1ccc2c(C(=O)NCc3ccccc3)cc(C(=O)[O-])nc2c1

- photoluminescence quantum yield (in C1CCOC1): 0.0262
- photoluminescence quantum yield (in CC#N): 0.0086
- photoluminescence quantum yield (in CCOC(C)=O): 0.072
- photoluminescence quantum yield (in CS(C)=O): 0.0022
- photoluminescence quantum yield (in ClC(Cl)Cl): 0.0342
SMILES: N#Cc1cc2ccc(O)cc2oc1=N

- photoluminescence quantum yield (in CC#N): 0.38
- photoluminescence quantum yield (in ClCCl): 0.53
SMILES: COC(=O)c1cc(=O)n(C)c2cc(-c3cc(OC)c(OC)c(OC)c3)sc12

- photoluminescence quantum yield (in O): 0.025
SMILES: COc1ccc(OC)c(C2=C3C=CC(=[N+](C)C)C=C3[Si](C)(C)c3cc(N(C)C)ccc32)c1

- photoluminescence quantum yield (in ClCCl): 0.5
SMILES: C[SiH]1c2ccccc2-c2cc3c(cc21)-c1ccccc1[SiH]3C (stereo not given)

- photoluminescence quantum yield (in ClCCl): 0.55
SMILES: COc1ccc(-c2cc3c(ccc4sccc43)s2)cc1

- photoluminescence quantum yield (in C1CCOC1): 0.6
SMILES: C(=C\c1cccc(/C=C/c2c3ccccc3cc3ccccc23)c1)/c1ccncc1

- photoluminescence quantum yield (in C1CCCCC1): 0.02
SMILES: COc1ccc(C2=C(c3ccc(OC)cc3)C(C)(C)c3sccc32)cc1

- photoluminescence quantum yield (in C1CCCCC1): 0.65
SMILES: COc1ccc([Si](C)(C)C)c2ccccc12

- photoluminescence quantum yield (in ClCCl): 0.13
SMILES: CC(C)CCCC(C)CCN1C(=O)c2ccc3c(-c4ccccc4)c4c5ccc6c7c(ccc(c(-c8ccccc8)c4c4ccc(c2c34)C1=O)c75)C(=O)N(CCC(C)CCCC(C)C)C6=O (stereo not given)

- photoluminescence quantum yield (in C1CCOC1): 0.0076
SMILES: O=C1/C(=C2\Nc3cc4ccc5cccc6ccc(c3C2=O)c4c56)Nc2cc3ccc4cccc5ccc(c21)c3c45

- photoluminescence quantum yield (in CC#N): 0.012
- photoluminescence quantum yield (in CCCCCC): 0.005
SMILES: Cc1ccc(C)n1-c1ccccc1

- photoluminescence quantum yield (in ClCCl): 0.57
SMILES: CCCCC(CC)COc1cc(OCC(CC)CCCC)c2c#cc3ccc4oc5ccc(c#cc6cc(c#cc7ccc8oc9ccc(c#cc1c2)cc9c8c7)c(C(CCCC)OCCC)cc6C(CCCC)OCCC)cc5c4c3 (stereo not given)

- photoluminescence quantum yield (in C1CCOC1): 0.208
SMILES: O=C(c1ccc(C(=C(c2ccccc2)c2ccccc2)c2ccccc2)cc1)c1ccc(-n2c3ccccc3c3ccccc32)cc1
